According to patent US8604085B2, “Bupropion hydrobromide polymorphs” (Valeant International Bermuda, priority 2008, dated 2013):

Tests used:
Format in all cases: physicochemical
[1] = Precipitation by anti-solvent (ethyl acetate) addition at room temperature
Excerpt: The samples were filtered and analyzed by X-ray diffraction. Form I converts into Form II using chloroform, and also with benzyl alcohol. The other experiments yield only Form I. See Table 54 for Form I precipitation results by anti-solvent addition.

[2] = Precipitation from oversaturated solution at 100° C., cooling rate 0.45° C./min
Method: Bupropion hydrobromide Form I was dissolved at 100° C. in solvent to obtain the oversaturated solution. The cooling rate applied was 0.45° C./min. The samples were filtered and analyzed by X-ray diffraction. Form I converts into Form VI using 1-Propanol, and into Form V using 1,4-Dioxane. The other experiments yield only Form I. See Table 55 for Form I precipitation results by oversaturated solution. […]

[3] = TGA and DSC characterization
Method: The PXRD diffraction patterns were obtained on X-ray powder diffraction PANalytical X′pert Pro equipped with X′Celerator, in a measurement range between 3 and 40 2 theta. All the DSC experiments were performed with a DSC 7 Perkin Elmer instrument in a temperature range between 25° C. and 250° C. with a heating rate of 10° C./min.
All the TGA experiments were conducted with a TGA 7 Perkin Elmer instrument in a temperature range between 39° C. and 310° C. with a heating rate of 10° C./min.
PXRD, DSC, TGA and IR analyses were obtained for Bupropion Hydrobromide Polymorph Form I, Form II, Form III, Form IV, Form V, Form VI, and Form VII. PXRD analyses were obtained for the amorphous form. With respect to the PXRD analyses, the Peak List is shown for Form I, Form II, Form III, Form IV, Form V, Form VI, Form VII and the amorphous form in Table 56, Table 57, Table 58, Table 59, Table 60, Table 61, Table 62 and Table 63 respectively.

Br.CC(NC(C)(C)C)C(=O)c1cccc(Cl)c1 (single isomer, unassigned) [Form I]
Form VI: Precipitation Result ([2]; solvent 1-Propanol)
Form II: Precipitation Result ([1]; solvent Benzyl Alcohol) | Precipitation Result ([1]; solvent Chloroform)
Form V: Precipitation Result ([2]; solvent 1,4-Dioxane)
236.81 °C: DSC (onset ° C.) ([3]; successive thermal events listed per polymorph)
Form I: Precipitation Result ([1]; solvent 1-Butanol) | Precipitation Result ([1]; solvent 1-Methyl-2-Pyrrolidone) | Precipitation Result ([1]; solvent 1-Propanol) | Precipitation Result ([1]; solvent 2-Methoxy Ethanol) | Precipitation Result ([1]; solvent 2-Methyl-1-Propanol) | Precipitation Result ([1]; solvent 2-Propanol) | Precipitation Result ([1]; solvent Dichloromethane) | Precipitation Result ([1]; solvent Dimethylformamide) | Precipitation Result ([1]; solvent Ethanol) | Precipitation Result ([1]; solvent Methanol) | Precipitation Result ([2]; solvent 1-Butanol) | Precipitation Result ([2]; solvent 1-Methyl-2-Pyrrolidone) | Precipitation Result ([2]; solvent 2-Methoxy Ethanol) | Precipitation Result ([2]; solvent 2-Methyl-1-Propanol) | Precipitation Result ([2]; solvent (±)2-Butanol) | Precipitation Result ([2]; solvent Dimethyl formamide) | Precipitation Result ([2]; solvent Dimethyl sulfoxyde) | Precipitation Result ([2]; solvent Nitromethane) | Precipitation Result ([2]; solvent Water) | Precipitation Result ([2]; solvent p-Xylene)
−100.04%: TGA (mass change) ([3]; successive mass-loss steps listed per polymorph)
